A word on the inhibition: it is the relative decrease from the control value, in per cent.

Activity calls are given as the source filed them.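 The calls were made as follows: active = at least 70% inhibition of the phosphatase PP5 at 50 µM; inactive = inhibition below 70% at 50 µM.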

The record followed here is PubChem BioAssay AID652224 (The Scripps Research Institute Molecular Screening Center, 2013).

For this test, the target named is Serine/threonine-protein phosphatase 5 (Homo sapiens) (UniProt P53041). Kind of test: PP5 phosphatase inhibitors at single dose, late-stage follow-up, selectivity assay for PP1 inhibitor project, biochemical, fluorescence, OMFP substrate, powder samples (AID 652224). The settings on record: purified PP5c, OMFP dephosphorylation fluorescence; at 50 µM; active compounds read high.
Sequence of Serine/threonine-protein phosphatase 5 (Homo sapiens) (P53041 whole entry, looked up): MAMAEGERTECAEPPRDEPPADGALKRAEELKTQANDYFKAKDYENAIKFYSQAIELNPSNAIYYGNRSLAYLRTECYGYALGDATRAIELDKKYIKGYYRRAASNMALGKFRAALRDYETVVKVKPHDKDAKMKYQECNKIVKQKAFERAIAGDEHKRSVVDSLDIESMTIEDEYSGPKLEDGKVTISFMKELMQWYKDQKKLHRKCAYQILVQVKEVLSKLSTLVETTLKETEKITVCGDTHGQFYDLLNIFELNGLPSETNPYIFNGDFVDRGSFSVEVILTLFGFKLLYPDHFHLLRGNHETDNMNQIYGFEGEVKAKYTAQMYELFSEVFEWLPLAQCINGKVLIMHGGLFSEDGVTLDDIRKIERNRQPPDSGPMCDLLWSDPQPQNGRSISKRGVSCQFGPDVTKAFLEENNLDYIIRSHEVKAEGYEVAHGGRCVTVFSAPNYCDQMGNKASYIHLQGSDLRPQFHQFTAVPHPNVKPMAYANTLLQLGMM
Regarding `Cc1cccnc1C(c1ccc2cccnc2c1O)N1CCN(C)CC1` (stereo unspecified), the inhibition was 66.1% (inactive).
`CN1CCN(C(c2ccccn2)c2ccc3cccnc3c2O)CC1` (stereo unspecified): the inhibition is 49.2% (inactive).
In the case of `Cc1ccc2ccc(C(c3ccccn3)N3CCN(C)CC3)c(O)c2n1` (stereo unspecified) it was 24.3% (inactive); in that of `CN1CCN(C(c2ncccn2)c2ccc3cccnc3c2O)CC1` (stereo unspecified), -0.77% (inactive).
In the case of `CC(C)(C)OC(=O)N1CCN(C(c2ccccn2)c2cc(Cl)c3cccnc3c2O)CC1` (stereo unspecified) it was 37.1% (inactive); in that of `CN1CCN(C(c2ccccn2)c2cc(Cl)c3cccnc3c2O)CC1` (stereo unspecified), 75.8%.
For `Oc1c(C(c2ccccn2)N2CCCC2)ccc2cccnc12` (stereo unspecified) the value was 45.2% (inactive).
Consider `CN1CCN(C(c2cccnc2)c2cc(Cl)c3cccnc3c2O)CC1` (stereo unspecified), for which the inhibition is 9.84% (inactive).
In the case of `COc1ccnc(C(c2ccc3cccnc3c2O)N2CCN(C)CC2)c1` (stereo unspecified) it was 58.8% (inactive).
In the case of `Oc1c(C(c2ccccn2)N2CCOCC2)cc(Cl)c2cccnc12` (stereo unspecified) it was 72.5%; in that of `CCN1CCN(C(c2ccccn2)c2cc(Cl)c3cccnc3c2O)CC1` (stereo unspecified), 67.9% (inactive); in that of `Oc1c(Cc2ccccn2)ccc2cccnc12`, 27% (inactive).
Turning to `CCOC(c1ccccn1)c1cc(Cl)c2cccnc2c1O` (stereo unspecified), the inhibition is 21.5% (inactive).
In the case of `Cc1ccnc(C(c2ccc3cccnc3c2O)N2CCN(C)CC2)c1` (stereo unspecified) it was 54.8% (inactive); in that of `CN1CCN(Cc2cc(Cl)c3cccnc3c2O)CC1`, 20.1% (inactive).
In the case of `Oc1c(C(c2ccccn2)N2CCNCC2)cc(Cl)c2cccnc12` (stereo unspecified) it was 14.4% (inactive).
Regarding `Cc1ccc(C(c2ccc3cccnc3c2O)N2CCN(C)CC2)nc1` (stereo unspecified), the inhibition is 66.2% (inactive).
On to `Oc1c(C(c2ccccn2)N2CCN(c3ccccc3F)CC2)cc(Cl)c2cccnc12` (stereo unspecified), for which the inhibition is 27% (inactive).
In the case of `CN1CCN(C(c2ccccc2)c2cc(Cl)c3cccnc3c2O)CC1` (stereo unspecified) it was 15.5% (inactive).
For `CN1CCC(NC(c2ccccn2)c2ccc3cccnc3c2O)CC1` (stereo unspecified) the value was 9.57% (inactive); for `COc1cccc(C(c2ccc3cccnc3c2O)N2CCN(C)CC2)n1` (stereo unspecified), -1.09% (inactive); for `CN1CCN(C(c2nccs2)c2cc(Cl)c3cccnc3c2O)CC1` (stereo unspecified), 35% (inactive).
Regarding `Cc1cccc(C(c2ccc3cccnc3c2O)N2CCN(C)CC2)n1` (stereo unspecified), the inhibition is -2.26% (inactive).
In the case of `CN1CCN(C(c2ccncc2)c2cc(Cl)c3cccnc3c2O)CC1` (stereo unspecified) it was 9.09% (inactive); in that of `Oc1c(C(c2ccccn2)N2CCC(Cc3ccccc3)CC2)cc(Cl)c2cccnc12` (stereo unspecified), 24.6% (inactive); in that of `CN1CCN(C(c2cccs2)c2cc(Cl)c3cccnc3c2O)CC1` (stereo unspecified), 24.7% (inactive).
For `Oc1c(CN2CCN(c3ccccn3)CC2)cc(Cl)c2cccnc12` the value was 32.4% (inactive); for `CN1CCN(C(c2ccccn2)c2cc(Cl)c3ccccc3c2O)CC1` (stereo unspecified), 12.1% (inactive); for `COCOc1c(C(c2ccccn2)N2CCN(C)CC2)ccc2cccnc12` (stereo unspecified), -6.11% (inactive).
In the case of `CN1CCN(C(c2ccc(C(F)(F)F)cn2)c2ccc3cccnc3c2O)CC1` (stereo unspecified) it was 61.9% (inactive); in that of `Oc1c(CN2CCN(c3ccccc3)CC2)cc(Cl)c2cccnc12`, 21.3% (inactive); in that of `CC1CCN(C(c2ccccn2)c2cc(Cl)c3cccnc3c2O)CC1` (stereo unspecified), 68.5% (inactive).
For `COc1ccc(C(c2ccc3cccnc3c2O)N2CCN(C)CC2)nc1` (stereo unspecified), the inhibition is 48.5% (inactive).
For the molecule `CN1CCN(C(c2ccc3cccnc3c2O)c2ncccc2C(F)(F)F)CC1` (stereo unspecified), the inhibition is 29.4% (inactive).
In the case of `CN1CCN(C(c2ccccn2)c2cc(Cl)ccc2O)CC1` (stereo unspecified) it was 4.27% (inactive); in that of `Oc1c(C(NC2CCCCC2)c2ccccn2)ccc2cccnc12` (stereo unspecified), 36.3% (inactive).
